# Measured values: ChEMBL document CHEMBL3639292, “17-hydroxy-19-nor-21-carboxylic acid-steroid Œ=-lactone derivative, use thereof, and medicament containing the derivative” (2015)
# Molecular target: T1, Androgen receptor (Homo sapiens, UniProt P10275)
# T1 sequence (P10275 whole entry): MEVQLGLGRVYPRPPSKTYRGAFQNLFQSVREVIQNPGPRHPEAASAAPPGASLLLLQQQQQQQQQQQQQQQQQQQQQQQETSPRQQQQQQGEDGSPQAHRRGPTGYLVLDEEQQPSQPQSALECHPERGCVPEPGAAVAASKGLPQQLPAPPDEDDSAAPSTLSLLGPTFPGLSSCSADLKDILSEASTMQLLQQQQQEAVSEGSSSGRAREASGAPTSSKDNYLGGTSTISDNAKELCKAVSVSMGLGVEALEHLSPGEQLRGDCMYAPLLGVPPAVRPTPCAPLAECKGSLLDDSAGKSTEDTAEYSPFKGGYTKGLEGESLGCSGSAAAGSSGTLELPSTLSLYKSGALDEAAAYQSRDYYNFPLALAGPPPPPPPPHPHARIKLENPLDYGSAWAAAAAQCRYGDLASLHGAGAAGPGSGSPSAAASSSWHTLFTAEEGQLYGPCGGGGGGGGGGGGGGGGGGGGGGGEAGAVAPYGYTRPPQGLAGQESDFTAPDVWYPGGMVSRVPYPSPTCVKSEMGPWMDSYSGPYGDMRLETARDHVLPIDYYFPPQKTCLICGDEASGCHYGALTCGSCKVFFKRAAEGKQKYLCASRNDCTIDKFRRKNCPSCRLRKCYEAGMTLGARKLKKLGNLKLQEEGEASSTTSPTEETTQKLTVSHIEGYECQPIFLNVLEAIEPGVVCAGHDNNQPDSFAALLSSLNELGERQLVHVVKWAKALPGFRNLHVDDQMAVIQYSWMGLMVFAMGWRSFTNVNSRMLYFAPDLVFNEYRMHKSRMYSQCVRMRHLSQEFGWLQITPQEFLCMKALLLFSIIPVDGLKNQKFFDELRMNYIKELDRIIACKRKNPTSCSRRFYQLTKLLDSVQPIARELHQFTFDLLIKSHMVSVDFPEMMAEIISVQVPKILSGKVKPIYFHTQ
# Experiment: Binding Assay: The test was carried out as in 1., with the following modifications: cytosol from androgen receptor-expressing insect cells (Hi5) was used, and the reference substance was 3H-testosterone.The results of the binding tests and the ratio of the competition factors CF(PR) and CR(MR) are shown in Table 1, which for comparison also shows receptor binding values of drospirenone as …
row,SMILES,IC50
1,CC[C@]12CC[C@H]3[C@@H](CC4(CC4)C4=CC(=O)CC[C@@H]43)[C@@H]1CC[C@@]21C=CC(=O)O1,42 nM
2,C[C@]12CC[C@H]3[C@@H](CC4(CC4)C4=CC(=O)CC[C@@H]43)[C@@H]1CC[C@@]21C=CC(=O)O1,37 nM
